Read-outs that look alike come from different tables or passages of the source.
How the values were obtained:
[1] = tested on: gastric cancer cell line AGS; test: MTT proliferation, gastric cancer cell line AGS; type: cell-based; conditions: read-out: IC50 (μM) in gastric cancer cells, AGS
Summary of the method: (§1)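 Tumour cells in exponential growth were trypsinised, seeded at 2 to 4×10^4 cells/mL, cultured 24 hours, then exposed to compounds for 72 hours. MTT was added for 4 hours, formazan dissolved in DMSO and absorbance read at 570 nm. IC50 came from an S curve of inhibition rate against concentration.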

[2] = tested on: wild-type AB-line zebrafish; conditions: 3 dpf to 5 dpf, 35° C.; survival rate>90% and teratogenicity<20%
Method: The zebrafish model is a wild-type AB-line zebrafish from College of Biotechnology and Pharmaceutical Engineering, Nanjing Tech University, and is carried out by a natural mating reproduction method, with 30 zebrafish of 2 dpf in each experimental group. The zebrafish is fed in fish culture water at 28° C. (water quality:200 mg of instant sea salt and CaCO3 are added into 1 L of reverse osmosis water with a conductivity of 480 uS/cm to 510 uS/cm, a pH value of 6.9 to 7.2, and a hardness of 53.7 mg/L to 71.6 mg/L), and the feeding management meets the requirements of international AAALAC certification.
240 3 dpf wild-type AB-line zebrafish were randomly selected in an 8-well plate, with 30 zebrafish in each well, and 3 mL of fish culture water in each well, the cordycepin was diluted according to a maximum lethal dose, dissolved in DMSO, and added into each well according to a concentration gradient (the maximum lethal dose was diluted by 100 times, in which 8 concentration gradient values were taken for the experiment), and meanwhile, a normal control group, a solvent control group G (5% glucose) and a solvent control group D (DMSO) were set. During the experiment, the zebrafish in each group were cultured at 35° C., after the zebrafish were treated to be 5 dpf with a sample to be tested, lethal and developmental malformation conditions of the zebrafish in different doses were investigated respectively, and a maximum tolerance dose (MTD) of the sample to be tested to normal zebrafish was determined under a concentration when survival rate>90% and teratogenicity<20%.

[3] = tested on: small cell lung cancer cell line H1048; test: MTT proliferation, small cell lung cancer cell line H1048; type: cell-based; conditions: read-out: IC50 (μM) of compounds in small cell lung cancer cells, H1048
Summary of the method: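 MTT assay: cells seeded at 2 to 4×10^4 cells/mL, grown 24 h, then exposed to compound for 72 h. MTT added for 4 h, formazan dissolved in DMSO and absorbance read at 570 nm; IC50 taken from the S-shaped concentration-inhibition curve.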

[4] = tested on: pancreatic cancer Pan02-luc cells; test: Mouse transplanted pancreatic cancer model, survival; type: in vivo, C57BL/6j nude mice; conditions: intragastric 500 ug/time/animal every day for 24 days, control 41 days
Method: The feeding of the mouse model in the drug evaluation follows that: mice are fed and treated in a laminar flow cabinet, with 5 nude mice in each cage, drinking water and feedstuffs are added once every 3 days, and paddings are replaced once a week; a number of mice kept in each cage is no more than 5, the mice in separate cages are kept in groups as far as possible, and the mice should not be kept in a single cage; the animal management must conform to the relevant national standards on animal feeding management, and the behavioral needs of animals should be concerned at the same time to avoid unnecessary stress; the normal physiological and behavioral needs of animals, such as defecation, urination, constant body temperature maintenance, normal activities, posture adjustment and reproduction are met; good ventilation and dry animals are kept; the animals can access to drinking water and food at will, and supplementation, replacement and cleaning operations are easily carried out; a solid and safe environment is provided to avoid accidents of animals, such as escaping or limb trapping in a gap; the animals are avoided from being damaged by sharp edges or protrusions; and the animals are not disturbed during observation. […]

[5] = tested on: gastric cancer cell line BGC-823; test: MTT proliferation, gastric cancer cell line BGC-823; type: cell-based; conditions: Homo sapiens, read-out: IC50 (μM) in gastric cancer cells, BGC-823
Summary of the method: as §1

| Compound | IC50 ([1]; 72 h) | Maximum tolerance dose (MTD) in zebrafish model [2] | IC50 ([3]; Homo sapiens, NCI-H1048, 72 h) | survival time of the tumor-bearing mice (median survival time) [4] | IC50 ([5]; BGC-823, 72 h) | IC50 ([1]; MTT, 72 hours, AGS) | IC50 ([3]; Homo sapiens, NCI-H1048, 72 h, MTT, 72 hours, H1048) | IC50 ([3]; MTT, 72 hours, H1048) | IC50 ([5]; MTT, 72 hours, BGC-823) |
| --- | --- | --- | --- | --- | --- | --- | --- | --- | --- |
| CC(C)OC(=O)C(C)NP(=O)(COC[C@@H]1CC(O)[C@H](n2cnc3c(NC(=O)c4ccncc4)ncnc32)O1)Oc1ccccc1 (some centres unmarked) [Compound 24, isopropyl((((4-hydroxy-5-(6-(isonicotinamide)-9H-purin-9-yl)tetrahydrofuran-2-yl)methoxy)methyl)(phenoxy)phosphoryl)alanine ester] | 0.13 µM | 5 µM | 24.4 µM | 76 days | 0.09 µM | – | – | – | – |
| Nc1ncnc2c1ncn2[C@@H]1O[C@H](CO)C[C@H]1O [Cordycepin, 3′-deoxyadenosine] | – | 995 µM | – | 52 days | – | 372 µM | > 100 µM | 172 µM | 235 µM |
